PMC6106730, “The hemicellulose-degrading enzyme system of the thermophilic bacterium Clostridium stercorarium: comparative characterisation and addition of new hemicellulolytic glycoside hydrolases” (Biotechnology for Biofuels, 2018)

What was measured:
Xyn105F = biological target: T1, Xyn105F (Thermoclostridium stercorarium, UniProt L7VMZ8); assay: HPAEC-PAD of hydrolysis products; assay type: biochemical; conditions: 20 mg/L oligosaccharide, 2 mg/L enzyme, overnight, 60 °C, pH 6.5
T1 construct: gene Cst_c10410; no signal peptide predicted; C-terminal His6 tag, pET-24c(+), E. coli BL21 Star; IMAC and heat step
T1 sequence (L7VMZ8 entry or part of it): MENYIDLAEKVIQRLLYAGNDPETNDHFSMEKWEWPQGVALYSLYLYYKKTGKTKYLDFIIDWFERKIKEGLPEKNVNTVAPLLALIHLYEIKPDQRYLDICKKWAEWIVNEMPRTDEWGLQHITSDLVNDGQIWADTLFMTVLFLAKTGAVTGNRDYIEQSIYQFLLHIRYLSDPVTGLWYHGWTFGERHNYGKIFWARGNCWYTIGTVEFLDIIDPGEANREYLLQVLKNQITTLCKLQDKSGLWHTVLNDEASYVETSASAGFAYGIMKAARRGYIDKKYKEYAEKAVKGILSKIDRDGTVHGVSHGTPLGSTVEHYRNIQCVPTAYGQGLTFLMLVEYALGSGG

Xyn10D = biological target: T2, Xyn10D (Thermoclostridium stercorarium, UniProt L7VM99); assay: HPAEC-PAD of hydrolysis products; assay type: biochemical; conditions: 20 mg/L oligosaccharide, 2 mg/L enzyme, overnight, 60 °C, pH 6.5
T2 construct: gene Cst_c07550; no signal peptide predicted; C-terminal His6 tag, pET-24c(+), E. coli BL21 Star; IMAC and heat step
T2 sequence (L7VM99 entry or part of it): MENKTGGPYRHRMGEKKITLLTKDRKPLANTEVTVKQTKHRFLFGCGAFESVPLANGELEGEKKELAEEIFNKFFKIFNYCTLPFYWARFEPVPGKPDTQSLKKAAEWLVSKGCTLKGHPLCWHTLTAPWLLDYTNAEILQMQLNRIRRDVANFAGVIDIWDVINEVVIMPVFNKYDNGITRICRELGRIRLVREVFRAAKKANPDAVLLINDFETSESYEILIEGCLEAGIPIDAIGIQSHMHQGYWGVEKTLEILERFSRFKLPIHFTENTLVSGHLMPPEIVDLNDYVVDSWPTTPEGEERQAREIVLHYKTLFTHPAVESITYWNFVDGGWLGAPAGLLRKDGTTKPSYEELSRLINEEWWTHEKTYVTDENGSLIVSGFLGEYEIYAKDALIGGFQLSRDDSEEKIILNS

Structure (SMILES): OC1OC[C@@H](O[C@@H]2OC[C@@H](O[C@@H]3OC[C@@H](O[C@@H]4OC[C@@H](O[C@@H]5OC[C@@H](O)[C@H](O)[C@H]5O)[C@H](O)[C@H]4O)[C@H](O)[C@H]3O)[C@H](O)[C@H]2O)[C@H](O)[C@H]1O (some centres unmarked) [X5, xylopentaose]
- HPAEC-PAD of hydrolysis products (Xyn105F): Xyn105F was also active on xylopentaose, releasing xylose and xylobiose
- HPAEC-PAD of hydrolysis products (Xyn10D): All five xylanases degraded xylopentaose first to xylotriose and xylobiose
